Source: US20220251163A1 (Sinopep-Allsino Biopharmaceutical Co., Ltd., priority 2019, published 2022)

How the values were obtained:
[1] = test system: ob/ob mice; assay: Blood glucose reducing experiment, single subcutaneous injection in ob/ob mice; format: in vivo; conditions: 100 μg/kg single s.c.; for Blood glucose at different time after administration, 0 h: 0 h (before administration); for Blood glucose at different time after administration, 0 h / Blood glucose at different time after administration, 2 h / Blood glucose at different time after administration, 4 h / Blood glucose at different time after administration, 6 h / Blood glucose at different time after administration, 10 h / Blood glucose at different time after administration, 24 h / AUC0-24 h Glu / Blood glucose at different time after administration, 34 h: X ± s, n = 7; for AUC0-24 h Glu: blood glucose curve area within 24 h; for AUC0-24 h Glu Decrease rate: versus model control group;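 for all read-outs here: random blood glucose read at each time point, decrease rate given as percentage fall versus the model control group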
[2] = Effect on random weight of ob/ob mice after single subcutaneous injection; format: in vivo; conditions: 100 μg/kg single s.c., X ± s, n = 7
Experimental: The mice in each group received random blood glucose value measurement before (0 h) administration and 2, 4, 6, 10 and 24 h after administration, and then the time for measuring the random blood glucose was adjusted and prolonged to 34, 48, 58 or 72 h after administration according to the blood glucose condition of the mice in each group. Meanwhile, the random weight of the mice in each group before (0 h) administration and 24 h after administration was weighed, and then the random weight of the mice corresponding to the random blood glucose measurement condition 48 or 72 h after administration was weighed.

| Compound | Blood glucose at different time after administration, 0 h [1] [mmol/L] | Decrease rate of blood glucose at different time after administration, 2 h [1] [%] | Blood glucose at different time after administration, 2 h [1] [mmol/L] | Decrease rate of blood glucose at different time after administration, 4 h [1] [%] | Blood glucose at different time after administration, 4 h [1] [mmol/L] | Decrease rate of blood glucose at different time after administration, 6 h [1] [%] | Blood glucose at different time after administration, 6 h [1] [mmol/L] | Decrease rate of blood glucose at different time after administration, 10 h [1] [%] | Blood glucose at different time after administration, 10 h [1] [mmol/L] | Decrease rate of blood glucose at different time after administration, 24 h [1] [%] | Blood glucose at different time after administration, 24 h [1] [mmol/L] | AUC0-24 h Glu [1] [mmol·h/L] | AUC0-24 h Glu Decrease rate [1] [%] | Changes of random body weight at different time after administration, 0 h [2] [g] | Random body weight at different time after administration, 0 h [2] [g] | Changes of random body weight at different time after administration, 24 h [2] [g] | Random body weight at different time after administration, 24 h [2] [g] | Decrease rate of blood glucose at different time after administration, 34 h [1] [%] | Blood glucose at different time after administration, 34 h [1] [mmol/L] | Decrease rate of blood glucose at different time after administration, 48 h [1] [%] | also measured |
| --- | --- | --- | --- | --- | --- | --- | --- | --- | --- | --- | --- | --- | --- | --- | --- | --- | --- | --- | --- | --- | --- |
| CC[C@H](C)[C@H](NC(=O)[C@H](CO)NC(=O)[C@H](Cc1ccc(O)cc1)NC(=O)[C@H](CC(=O)O)NC(=O)[C@H](CO)NC(=O)[C@@H](NC(=O)[C@H](Cc1ccccc1)NC(=O)[C@@H](NC(=O)CNC(=O)[C@H](CCC(=O)O)NC(=O)[C@H](C)NC(=O)[C@@H](N)Cc1ccc(O)cc1)[C@@H](C)O)[C@@H](C)CC)C(=O)N[C@@H](C)C(=O)N[C@@H](CCSC)C(=O)N[C@@H](CC(=O)O)C(=O)N[C@@H](CCCCN)C(=O)N[C@H](C(=O)N[C@@H](Cc1c[nH]cn1)C(=O)N[C@@H](CCC(N)=O)C(=O)N[C@@H](CCC(N)=O)C(=O)N[C@@H](CC(=O)O)C(=O)N[C@@H](Cc1ccccc1)C(=O)N[C@H](C(=O)N[C@@H](CC(N)=O)C(=O)N[C@@H](Cc1c[nH]c2ccccc12)C(=O)N[C@@H](CC(C)C)C(=O)N[C@@H](CC(C)C)C(=O)N[C@@H](C)C(=O)N[C@@H](CCC(N)=O)C(=O)N[C@@H](CCCCN)C(=O)NCC(=O)N[C@@H](CCCCN)C(=O)N[C@@H](CCCCN)C(=O)N[C@@H](CC(N)=O)C(=O)N[C@@H](CC(=O)O)C(=O)N[C@@H](Cc1c[nH]c2ccccc12)C(=O)N[C@@H](CCCCN)C(=O)N[C@@H](Cc1c[nH]cn1)C(=O)N[C@@H](CC(N)=O)C(=O)N[C@H](C(=O)N[C@H](C(=O)N[C@@H](CCC(N)=O)C(=O)O)[C@@H](C)O)[C@@H](C)CC)C(C)C)[C@@H](C)CC [GIP, Glucose-dependent inotropic peptide, reference compound] | 20.36 ± 0.74 | 38.0 | 12.63 ± 1.70 | 38.8 | 12.46 ± 1.66 | 32.7 | 13.71 ± 0.86 | 30.5 | 14.16 ± 1.24 | 12.4 | 17.84 ± 0.87 | 363.99 ± 14.21 | 28.7 | 0.0 ± 0.0 | 43.5 ± 0.8 | 0.1 ± 0.1 | 43.6 ± 0.8 | – | – | – | – |
| CC[C@H](C)[C@H](NC(=O)[C@H](Cc1ccccc1)NC(=O)[C@H](CCC(=O)O)NC(=O)[C@H](CCCCN)NC(=O)[C@H](C)NC(=O)[C@H](C)NC(=O)[C@H](CCC(N)=O)NC(=O)CNC(=O)[C@H](CCC(=O)O)NC(=O)[C@H](CC(C)C)NC(=O)[C@H](Cc1ccc(O)cc1)NC(=O)[C@H](CO)NC(=O)[C@H](CO)NC(=O)[C@@H](NC(=O)[C@H](CC(=O)O)NC(=O)[C@H](CO)NC(=O)[C@@H](NC(=O)[C@H](Cc1ccccc1)NC(=O)[C@@H](NC(=O)CNC(=O)[C@H](CCC(=O)O)NC(=O)[C@H](C)NC(=O)[C@@H](N)Cc1c[nH]cn1)[C@@H](C)O)[C@@H](C)O)C(C)C)C(=O)N[C@@H](C)C(=O)N[C@@H](Cc1c[nH]c2ccccc12)C(=O)N[C@@H](CC(C)C)C(=O)N[C@H](C(=O)N[C@@H](CCCCN)C(=O)NCC(=O)N[C@@H](CCCNC(=N)N)C(N)=O)C(C)C [GLP-1, glucagon-like peptide-1, reference compound] | 20.30 ± 1.05 | 40.6 | 12.06 ± 1.36 | 41.9 | 11.79 ± 0.84 | 35.9 | 13.02 ± 0.86 | 30.9 | 14.03 ± 2.41 | 11.1 | 18.04 ± 0.71 | 359.61 ± 18.59 | 29.6 | 0.0 ± 0.0 | 43.2 ± 0.7 | -0.1 ± 0.1 | 43.1 ± 0.7 | – | – | – | – |
| CC[C@H](C)[C@H](NC(=O)[C@H](CC(C)C)NC(=O)[C@H](Cc1c[nH]c2ccccc12)NC(=O)[C@H](CCC(N)=O)NC(=O)[C@@H](NC(=O)[C@H](Cc1ccccc1)NC(=O)[C@H](C)NC(=O)[C@H](CCCCNC(=O)COCCOCCNC(=O)COCCOCCNC(=O)CC[C@H](NC(=O)CCCCCCCCCCCCCCCCC(=O)O)C(=O)O)NC(=O)[C@H](CCC(N)=O)NC(=O)[C@H](C)NC(=O)[C@@H](NC(=O)[C@H](CCCCN)NC(=O)[C@H](CC(=O)O)NC(=O)[C@H](CC(C)C)NC(=O)C1(NC(=O)[C@@H](NC(=O)[C@H](CO)NC(=O)[C@H](Cc2ccc(O)cc2)NC(=O)[C@H](CC(=O)O)NC(=O)[C@H](CO)NC(=O)[C@@H](NC(=O)[C@H](Cc2ccccc2)NC(=O)[C@@H](NC(=O)CNC(=O)[C@H](CCC(=O)O)NC(=O)C(C)(C)NC(=O)[C@@H](N)Cc2ccc(O)cc2)[C@@H](C)O)[C@@H](C)O)[C@@H](C)CC)CCC1)[C@@H](C)CC)C(C)C)C(=O)N[C@@H](C)C(=O)NCC(=O)NCC(=O)N1CCC[C@H]1C(=O)N[C@@H](CO)C(=O)N[C@@H](CO)C(=O)NCC(=O)N[C@@H](C)C(=O)N1CCC[C@H]1C(=O)N1CCC[C@H]1C(=O)N1CCC[C@H]1C(=O)N[C@@H](CO)C(N)=O [ID NO: 8] | 20.36 ± 0.87 | 48.1 | 10.56 ± 0.99 | 50.9 | 9.99 ± 0.86 | 51.7 | 9.83 ± 0.85 | 53.1 | 9.54 ± 1.12 | 41.3 | 11.95 ± 1.26 | 260.46 ± 21.31 | 49.0 | 0.0 ± 0.0 | 43.8 ± 0.7 | -1.1 ± 0.2 | 42.7 ± 0.7 | 29.6 | 14.33 ± 1.43 | 15.7 | Changes of random body weight at different time after administration, 48 h [2]: -0.6 ± 0.1 g; Random body weight at different time after administration, 48 h [2]: 43.2 ± 0.7 g |
| Semaglutide [reference compound] | 20.71 ± 1.14 | 56.0 | 9.12 ± 0.84 | 56.7 | 8.96 ± 1.40 | 59.8 | 8.32 ± 0.88 | 60.0 | 8.29 ± 0.86 | 59.0 | 8.49 ± 1.12 | 215.87 ± 18.67 | 57.7 | 0.0 ± 0.0 | 43.7 ± 1.0 | -2.9 ± 0.2 | 40.7 ± 1.0 | 56.0 | 9.12 ± 0.83 | 13.9 | Changes of random body weight at different time after administration, 48 h [2]: -1.9 ± 0.2 g; Random body weight at different time after administration, 48 h [2]: 41.7 ± 1.0 g |
